Consider one compound from patent publication US20250326708A1, “LONG-ACTING SPLEEN-TARGETING CATIONIC LIPID COMPOUND COMPRISING BENZENE RING STRUCTURE, COMPOSITION COMPRISING SAME, AND USE THEREOF” (Beijing Youcarekechuang Pharmaceutical Technology Co., Ltd., priority 2024, published 2025).

The nature of data set [1]: Particle size and polydispersity index (PDI) of lipid nanoparticles, dynamic light scattering. The note with it: LNP preparation with the named cationic lipid; 90° scattering angle, 25° C. Type of data set: physicochemical. The method in brief:
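LNPs of cationic lipid:DSPC:cholesterol:DMG-PEG2000 (49:10:39.5:1.5 molar) encapsulating eGFP or Fluc mRNA at 15:1 lipid:mRNA weight ratio, made by ethanol injection into citrate buffer pH 4–5, sonication, and ultrafiltration into PBS. Size and PDI by DLS at 90° and 25° C after dilution in water, three measurements per sample.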

A further data set concerns female BALB/C mice. The data set can be described thus: Distribution of delivered small nucleic acid drug (Cy5 fluorescently labeled Leqvio) in different organs of mice. Type of data set: in vivo. On the procedure:
LNP preparations containing 5 μg of Cy5 fluorescently labeled Leqvio were injected via the tail vein into female BALB/C mice (4 to 6 weeks old, weighing 17 to 19 g). At a specific time point after administration (4 h), the average radiation intensity (corresponding to fluorescence intensity) resulting from the Cy5 fluorescently labeled Leqvio delivered by the LNP preparations in the mice in vivo was detected using the IVIS Spectrum small-animal in vivo imaging system. After sampling, the mice were killed by cervical dislocation and dissected, and the internal organs: heart, liver, spleen, lung, kidney, and lymph of mice were accurately isolated. The average radiation intensity (corresponding to fluorescence intensity) resulting from Cy5 fluorescently labeled Leqvio delivered by the LNP preparations in various organs of mice was then detected using the IVIS Spectrum small-animal in vivo imaging system.

Where [2] appears, read: 4 hours after 5 μg Cy5 fluorescently labeled Leqvio via tail vein.

SMILES strings stand for the structures.

In data set [1], `CCCCCCCCCCCOC(=O)CCCN(CCCCCCC(=O)OCCC(CCCCCC)CCCCCC)CCNC(CO)(CO)CCc1ccc(CCCCCCCC)cc1` [YK-910, 3-hexylnonyl 7-((2-((1-hydroxy-2-(hydroxymethyl)-4-(4-octylphenyl)butan-2-yl)amino)ethyl) (4-oxo-4-(undecyloxy)butyl)amino) heptanoate] came in with a PDI of 10.3% and a Particle size of 126 nm. In addition, in the data set on female BALB/C mice (setting [2]), the “Average radiation intensity of mouse organs: Heart” value is 0, the “Average radiation intensity of mouse organs: Kidney” value turned out to be 53243, the “Average radiation intensity of mouse organs: Liver” value is given as 33583 and the “Average radiation intensity of mouse organs: Lung” value amounted to 0. Besides, in the data set on female BALB/C mice (setting [2]), the “Average radiation intensity of mouse organs: Lymph” value was 0 and the “Average radiation intensity of mouse organs: Spleen” value worked out at 63583. In addition, in the data set on female BALB/C mice (Cy5 Leqvio, spleen, 4 h, vs SM-102), the “Fluorescence intensity in the spleen, times that of SM-102” value came out at 51.19 times. For the same compound, the “Fluorescence intensity in the spleen, times that of YK-501” value in the data set with female BALB/C mice (Cy5 Leqvio, spleen, 4 h, vs YK-501) was 11.91 times. Further, the “Fluorescence intensity in the spleen, times that of YK-506” value with female BALB/C mice (Cy5 Leqvio, spleen, 4 h, vs YK-506) was 2.85 times. In addition, the “Fluorescence intensity in the spleen, times that of direct administration” value in the data set with female BALB/C mice (Cy5 Leqvio, spleen, 4 h, vs direct administration) stood at 150.67 times.
